Tests used:
Assay in all cases: relative viability (nuclei count vs DMSO), 5 days (fraction); higher = more cells survive
CAP-232 + Crizotinib = compound: C[C@H]([C@@H](C(=O)N)NC(=O)[C@@H]1CSSC[C@@H](C(=O)N[C@H](C(=O)N[C@@H](C(=O)N[C@H](C(=O)N1)CCCCN)CC2=CNC3=CC=CC=C32)CC4=CC=C(C=C4)O)NC(=O)[C@@H](CC5=CC=CC=C5)N)O [CAP-232] + C[C@@H](Oc1cc(-c2cnn(C3CCNCC3)c2)cnc1N)c1c(Cl)ccc(F)c1Cl [Crizotinib] (partner 1 µM)
Summary of the method: (§1)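 Relative viability was taken as the ratio of nuclei in treated wells to nuclei in vehicle wells. Lung cancer cell lines in 1536-well plates received compounds by pin tool one day after seeding, either one drug alone or a fixed anchor-drug dose plus five library-drug doses (not always all listed) in √10 steps. Nuclei were counted on 4× images after 5 days of treatment, and values are medians of duplicate plates.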

CAP-232 + Linsitinib = compound: C[C@H]([C@@H](C(=O)N)NC(=O)[C@@H]1CSSC[C@@H](C(=O)N[C@H](C(=O)N[C@@H](C(=O)N[C@H](C(=O)N1)CCCCN)CC2=CNC3=CC=CC=C32)CC4=CC=C(C=C4)O)NC(=O)[C@@H](CC5=CC=CC=C5)N)O [CAP-232] + C[C@]1(O)C[C@@H](c2nc(-c3ccc4ccc(-c5ccccc5)nc4c3)c3c(N)nccn32)C1 [Linsitinib] (partner 1 µM)
Summary of the method: as §1

CAP-232 + Phenformin = compound: C[C@H]([C@@H](C(=O)N)NC(=O)[C@@H]1CSSC[C@@H](C(=O)N[C@H](C(=O)N[C@@H](C(=O)N[C@H](C(=O)N1)CCCCN)CC2=CNC3=CC=CC=C32)CC4=CC=C(C=C4)O)NC(=O)[C@@H](CC5=CC=CC=C5)N)O [CAP-232] + N=C(N)NC(=N)NCCc1ccccc1 [Phenformin] (partner 250 µM)
Summary of the method: as §1

CAP-232 + Foretinib = compound: C[C@H]([C@@H](C(=O)N)NC(=O)[C@@H]1CSSC[C@@H](C(=O)N[C@H](C(=O)N[C@@H](C(=O)N[C@H](C(=O)N1)CCCCN)CC2=CNC3=CC=CC=C32)CC4=CC=C(C=C4)O)NC(=O)[C@@H](CC5=CC=CC=C5)N)O [CAP-232] + COc1cc2c(Oc3ccc(NC(=O)C4(C(=O)Nc5ccc(F)cc5)CC4)cc3F)ccnc2cc1OCCCN1CCOCC1 [Foretinib] (partner 0.25 µM)
Summary of the method: as §1

CAP-232 = compound: C[C@H]([C@@H](C(=O)N)NC(=O)[C@@H]1CSSC[C@@H](C(=O)N[C@H](C(=O)N[C@@H](C(=O)N[C@H](C(=O)N1)CCCCN)CC2=CNC3=CC=CC=C32)CC4=CC=C(C=C4)O)NC(=O)[C@@H](CC5=CC=CC=C5)N)O [CAP-232]
Summary of the method: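 Viability was defined as treated-well nuclei divided by vehicle-well nuclei, with the median taken over replicate plates. Cells from lung cancer lines sat overnight at 37 °C in 1536-well plates, received five √10-spaced library-drug doses by pinning on vehicle-anchored plates, and grew 5 days without medium change before one-step fixation, permeabilisation and Hoechst staining, 4× imaging and MetaXpress nuclear counts. Only plates with control CV under 25% and at least one doubling were kept.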

Cell Line | relative viability (CAP-232 + Crizotinib; first compound 0.4 µM) | relative viability (CAP-232 + Crizotinib; first compound 1.265 µM) | relative viability (CAP-232 + Crizotinib; first compound 4 µM) | relative viability (CAP-232 + Crizotinib; first compound 12.65 µM) | relative viability (CAP-232 + Linsitinib; first compound 0.4 µM) | relative viability (CAP-232 + Linsitinib; first compound 1.265 µM) | relative viability (CAP-232 + Linsitinib; first compound 4 µM) | relative viability (CAP-232 + Linsitinib; first compound 12.65 µM) | relative viability (CAP-232 + Phenformin; first compound 0.4 µM) | relative viability (CAP-232 + Phenformin; first compound 1.265 µM) | relative viability (CAP-232 + Phenformin; first compound 4 µM) | relative viability (CAP-232 + Phenformin; first compound 12.65 µM) | relative viability (CAP-232 + Foretinib; first compound 0.4 µM) | relative viability (CAP-232 + Foretinib; first compound 1.265 µM) | relative viability (CAP-232 + Foretinib; first compound 4 µM) | relative viability (CAP-232 + Foretinib; first compound 12.65 µM) | relative viability (CAP-232; 0.4 µM) | relative viability (CAP-232; 1.265 µM) | relative viability (CAP-232; 4 µM) | relative viability (CAP-232; 12.65 µM)
NCI-H1944 | 1.12 | 1.05 | 1.03 | 1.24 | 1.3 | 1.13 | 1.14 | 1.07 | 0.211 | 0.207 | 0.221 | 0.181 | 0.849 | 0.862 | 0.906 | 0.882 | 0.921 | 0.972 | 1.03 | 0.969
LC-2-ad | 0.436 | 0.464 | 0.451 | 0.391 | 0.84 | 0.847 | 0.766 | 0.807 | 0.707 | 0.514 | 0.603 | 0.257 | 0.875 | 0.878 | 0.894 | 0.524 | 1.17 | 0.95 | 1.07 | 1.03
NCI-H358 | 0.435 | 0.426 | 0.473 | 0.511 | 0.548 | 0.686 | 0.796 | 0.584 | 0.319 | 0.295 | 0.278 | 0.315 | 0.678 | 0.841 | 0.686 | 0.563 | 0.979 | 0.918 | 0.927 | 0.81
NCI-H2170 | 1.24 | 1.22 | 1.23 | 0.901 | – | – | – | – | 0.409 | 0.422 | 0.438 | 0.42 | 1 | 1.04 | 1.02 | 1.05 | 0.986 | 0.971 | 1.16 | 1.02
NCI-H2342 | – | – | – | – | – | – | – | – | 0.572 | 0.562 | 0.629 | 0.551 | 0.944 | 1.03 | 0.995 | 0.995 | 0.952 | 0.997 | 1.08 | 0.977
SW 900 | – | – | – | – | – | – | – | – | 0.644 | 0.527 | 0.722 | 0.457 | 0.819 | 0.816 | 0.96 | 0.858 | 0.962 | 0.881 | 0.953 | 0.845
A-427 | 0.881 | 0.913 | 0.908 | 0.93 | 1.14 | 1.09 | 1.15 | 1.12 | 0.249 | 0.332 | 0.259 | 0.312 | 0.852 | 1.19 | 1.05 | 1.1 | 1.01 | 0.953 | 0.931 | 0.86
NCI-H522 | – | – | – | – | – | – | – | – | 0.7 | 0.72 | 0.592 | 0.69 | – | – | – | – | 0.967 | 0.982 | 1.01 | 0.916

Source: the supplement of paper PMC10307832
